Experimental data published in the NIST ThermoML archive (doi:10.1021/je300175w).
Where “and” joins values, the source holds several entries; their conditions need not be identical. Identical values can stand only once.

Assay: mn = molality of the nth substance listed, in mol/kg
Settings: 101 kPa, Liquid; for speed of sound: Sing-around technique in a fixed-path interferometer; for mass density: Vibrating tube method

CC(CO)(CO)CO [1,1,1-trimethylolethane] + O
speed of sound
Settings | 278.15 K | 283.15 K | 288.15 K | 293.15 K | 298.15 K | 308.15 K | 318.15 K
m1 = 0.09995 | 1433.9 m/s and 1433.8 m/s | 1454.4 m/s | 1472.6 m/s | 1488.5 m/s | 1502.4 m/s and 1502.5 m/s | 1525 m/s | 1540.9 m/s
m1 = 0.1985 | 1441.3 m/s | 1461.3 m/s | 1479 m/s | 1494.5 m/s | 1508 m/s and 1508.1 m/s | 1529.9 m/s | 1545.2 m/s and 1545.5 m/s
m1 = 0.291 | 1448.2 m/s | 1467.7 m/s | 1484.9 m/s | 1500.1 m/s | 1513.2 m/s | 1534.4 m/s and 1534.7 m/s | 1549.1 m/s and 1549 m/s
m1 = 0.3923 | 1455.6 m/s | 1474.6 m/s | 1491.3 m/s and 1491.4 m/s | 1506.1 m/s | 1518.8 m/s | 1539.3 m/s and 1539.6 m/s | 1553.3 m/s and 1553.2 m/s
m1 = 0.4962 | 1463.1 m/s | 1481.5 m/s and 1481.6 m/s | 1497.8 m/s | 1512.1 m/s | 1524.4 m/s and 1524.5 m/s | 1544.2 m/s and 1544.5 m/s | 1557.6 m/s and 1557.4 m/s
m1 = 0.6042 | 1470.7 m/s | 1488.6 m/s | 1504.4 m/s | 1518.2 m/s | 1530.1 m/s and 1530.2 m/s | 1549.2 m/s and 1548.9 m/s | 1561.9 m/s and 1561.7 m/s

OCC(CO)(CO)CO [2,2-bis(hydroxymethyl)-1,3-propanediol] + O
Settings | mass density | speed of sound
273.15 K, m1 = 0.1002 | 1003.54 kg/m3 and 1003.55 kg/m3 | –
273.15 K, m1 = 0.1501 | 1005.3 kg/m3 and 1005.29 kg/m3 | –
273.15 K, m1 = 0.2001 | 1007.05 kg/m3 and 1007.04 kg/m3 | –
273.15 K, m1 = 0.2503 | 1008.77 kg/m3 | –
273.15 K, m1 = 0.3005 | 1010.48 kg/m3 | –
273.15 K, m1 = 0.35 | 1012.15 kg/m3 and 1012.16 kg/m3 | –
278.15 K, m1 = 0.1002 | – | 1432.6 m/s and 1432.7 m/s
278.15 K, m1 = 0.1501 | – | 1435.8 m/s
278.15 K, m1 = 0.2001 | – | 1439 m/s
278.15 K, m1 = 0.2503 | – | 1442.1 m/s and 1442.2 m/s
278.15 K, m1 = 0.3005 | – | 1445.3 m/s
278.15 K, m1 = 0.35 | – | 1448.3 m/s and 1448.4 m/s
283.15 K, m1 = 0.1002 | 1003.23 kg/m3 | 1453.3 m/s
283.15 K, m1 = 0.1501 | 1004.96 kg/m3 | 1456.2 m/s and 1456.3 m/s
283.15 K, m1 = 0.2001 | 1006.68 kg/m3 and 1006.69 kg/m3 | 1459.2 m/s
283.15 K, m1 = 0.2503 | 1008.38 kg/m3 and 1008.39 kg/m3 | 1462.2 m/s
283.15 K, m1 = 0.3005 | 1010.07 kg/m3 and 1010.08 kg/m3 | 1465.1 m/s
283.15 K, m1 = 0.35 | 1011.72 kg/m3 and 1011.73 kg/m3 | 1468 m/s
288.15 K, m1 = 0.1002 | 1002.59 kg/m3 | 1471.6 m/s
288.15 K, m1 = 0.1501 | 1004.3 kg/m3 | 1474.4 m/s
288.15 K, m1 = 0.2001 | 1006 kg/m3 and 1006.01 kg/m3 | 1477.2 m/s
288.15 K, m1 = 0.2503 | 1007.68 kg/m3 and 1007.69 kg/m3 | 1479.9 m/s
288.15 K, m1 = 0.3005 | 1009.35 kg/m3 and 1009.36 kg/m3 | 1482.6 m/s and 1482.7 m/s
288.15 K, m1 = 0.35 | 1010.98 kg/m3 and 1010.99 kg/m3 | 1485.3 m/s and 1485.4 m/s
293.15 K, m1 = 0.1002 | 1001.66 kg/m3 | 1487.7 m/s
293.15 K, m1 = 0.1501 | 1003.35 kg/m3 | 1490.3 m/s
293.15 K, m1 = 0.2001 | 1005.04 kg/m3 and 1005.03 kg/m3 | 1492.9 m/s and 1492.8 m/s
293.15 K, m1 = 0.2503 | 1006.7 kg/m3 and 1006.71 kg/m3 | 1495.5 m/s
293.15 K, m1 = 0.3005 | 1008.35 kg/m3 | 1498 m/s and 1498.1 m/s
293.15 K, m1 = 0.35 | 1009.97 kg/m3 | 1500.6 m/s
298.15 K, m1 = 0.1002 | 1000.47 kg/m3 | 1501.7 m/s
298.15 K, m1 = 0.1501 | 1002.14 kg/m3 and 1002.15 kg/m3 | 1504.1 m/s and 1504.2 m/s
298.15 K, m1 = 0.2001 | 1003.82 kg/m3 | 1506.6 m/s
298.15 K, m1 = 0.2503 | 1005.47 kg/m3 | 1509 m/s and 1509.1 m/s
298.15 K, m1 = 0.3005 | 1007.1 kg/m3 and 1007.11 kg/m3 | 1511.5 m/s
298.15 K, m1 = 0.35 | 1008.7 kg/m3 and 1008.71 kg/m3 | 1513.9 m/s
303.15 K, m1 = 0.1002 | 999.044 kg/m3 and 999.045 kg/m3 | 1513.8 m/s
303.15 K, m1 = 0.1501 | 1000.71 kg/m3 | 1516.2 m/s
303.15 K, m1 = 0.2001 | 1002.36 kg/m3 and 1002.37 kg/m3 | 1518.5 m/s
303.15 K, m1 = 0.2503 | 1004 kg/m3 | 1520.8 m/s
303.15 K, m1 = 0.3005 | 1005.62 kg/m3 | 1523.1 m/s and 1523 m/s
303.15 K, m1 = 0.35 | 1007.22 kg/m3 and 1007.21 kg/m3 | 1525.3 m/s
308.15 K, m1 = 0.1002 | 997.404 kg/m3 and 997.402 kg/m3 | 1524.3 m/s
308.15 K, m1 = 0.1501 | 999.052 kg/m3 and 999.053 kg/m3 | 1526.5 m/s and 1526.4 m/s
308.15 K, m1 = 0.2001 | 1000.7 kg/m3 | 1528.6 m/s
308.15 K, m1 = 0.2503 | 1002.33 kg/m3 | 1530.8 m/s
308.15 K, m1 = 0.3005 | 1003.93 kg/m3 and 1003.94 kg/m3 | 1533 m/s and 1532.9 m/s
308.15 K, m1 = 0.35 | 1005.51 kg/m3 and 1005.52 kg/m3 | 1535.1 m/s and 1535 m/s
318.15 K, m1 = 0.1002 | 993.545 kg/m3 and 993.543 kg/m3 | 1540.4 m/s
318.15 K, m1 = 0.1501 | 995.176 kg/m3 and 995.177 kg/m3 | 1542.3 m/s and 1542.4 m/s
318.15 K, m1 = 0.2001 | 996.806 kg/m3 and 996.808 kg/m3 | 1544.2 m/s and 1544.3 m/s
318.15 K, m1 = 0.2503 | 998.41 kg/m3 and 998.412 kg/m3 | 1546.2 m/s and 1546.3 m/s
318.15 K, m1 = 0.3005 | 1000 kg/m3 | 1548.1 m/s and 1548.2 m/s
318.15 K, m1 = 0.35 | 1001.56 kg/m3 | 1549.9 m/s and 1550 m/s and 1550.1 m/s

CC(CO)CO [2-methyl-1,3-propanediol] + O
speed of sound
Settings | 278.15 K | 283.15 K | 288.15 K | 293.15 K | 298.15 K | 308.15 K | 318.15 K
m1 = 0.1097 | 1434 m/s | 1454.5 m/s and 1454.4 m/s | 1472.6 m/s | 1488.5 m/s | 1502.3 m/s and 1502.4 m/s | 1524.7 m/s | 1540.4 m/s and 1540.6 m/s
m1 = 0.1997 | 1440.3 m/s and 1440.4 m/s | 1460.3 m/s | 1477.9 m/s and 1478 m/s | 1493.4 m/s | 1506.9 m/s | 1528.6 m/s | 1543.8 m/s and 1544 m/s
m1 = 0.3091 | 1448 m/s | 1467.3 m/s | 1484.4 m/s | 1499.4 m/s | 1512.4 m/s | 1533.6 m/s and 1533.3 m/s | 1547.8 m/s and 1548 m/s
m1 = 0.3983 | 1454.1 m/s | 1472.9 m/s and 1473 m/s | 1489.6 m/s | 1504.1 m/s and 1504.2 m/s | 1516.8 m/s | 1537.3 m/s and 1537 m/s | 1551.1 m/s and 1551.2 m/s

CCC(CO)(CO)CO [2-ethyl-2-(hydroxymethyl)-1,3-propanediol] + O
speed of sound
Settings | 278.15 K | 283.15 K | 288.15 K | 293.15 K | 298.15 K | 308.15 K | 318.15 K
m1 = 0.09974 | 1436 m/s and 1436.1 m/s | 1456.4 m/s and 1456.5 m/s | 1474.5 m/s | 1490.3 m/s | 1504.1 m/s | 1526.5 m/s and 1526.2 m/s | 1542.2 m/s and 1542 m/s
m1 = 0.1998 | 1445.7 m/s | 1465.3 m/s and 1465.4 m/s | 1482.8 m/s | 1498 m/s | 1511.3 m/s | 1532.7 m/s and 1532.4 m/s | 1547.6 m/s and 1547.4 m/s
m1 = 0.3 | 1455.1 m/s | 1474.1 m/s | 1490.9 m/s | 1505.6 m/s | 1518.3 m/s | 1538.9 m/s and 1538.5 m/s | 1552.8 m/s and 1552.7 m/s
m1 = 0.3961 | 1464 m/s | 1482.3 m/s and 1482.4 m/s | 1498.5 m/s | 1512.7 m/s | 1524.9 m/s | 1544.6 m/s and 1544.3 m/s | 1557.4 m/s and 1557.6 m/s
m1 = 0.5048 | 1473.8 m/s | 1491.4 m/s | 1507 m/s | 1520.5 m/s | 1532.2 m/s | 1550.9 m/s and 1550.5 m/s | 1562.8 m/s and 1563 m/s
